Results published in patent US7138399B2, “Alkoxypyridine-derivatives” (Altana Pharma AG, priority 2002, dated 2006).

What was measured:
[1] = target: human inducible NO-synthase (Homo sapiens, UniProt P35228); experiment: Measurement of inducible NO-synthase activity ([3H]arginine conversion); assay type: biochemical; conditions: crude cytosolic fraction containing human inducible NO-synthase, arginine 0.1 μM, 45 to 60 min at 37° C.; for IC50: read-out: Inhibition of iNOS activity [measured as −logIC50 (mol/l)] (converted)
Protocol: Measurement of Inducible NO-Synthase Activity
The assay is performed in 96-well microtiter F-plates (Greiner, Frickenhausen, FRG) in a total volume of 100 μl in the presence of 100 nM calmodulin, 226 μM CaCl2, 477 μM MgCl2, 5 μM flavin-adenine-dinucleotide (FAD), 5 μM flavin mononucleotide (FMN), 0.1 mM NADPH, 7 mM glutathione, 10 μM BH4 and 100 mM HEPES pH 7.2. Arginine concentrations are 0.1 μM for enzyme inhibition experiments. 150000 dpm of [^3H]arginine are added to the assay mixture. Enzyme reaction is started by the addition of 4 μg of a crude cytosolic fraction containing human inducible NO-synthase and the reaction mixture is incubated for 45 to 60 min at 37° C. Enzyme reaction is stopped by adding 10 μl of 2M MES-buffer pH 5.0. 50 μl of the incubation mixture are transferred into a MADP N65 filtration microtiter plate (Millipore, Eschborn, FRG) containing already 50 μl of AG-50W-X8 cation exchange resin (Biorad, München, FRG). The resin in the Na loaded form is pre-equilibrated in water and 70 μl (corresponding to 50 μl dry beads) are pipetted under heavy stirring with a 8 channel pipette into the filtration plate. After pipetting 50 μl of the enzyme reaction mixture onto the filtration plates, the plates are placed on a filtration manifold (Porvair, Shepperton, UK) and the flow through is collected in Pico scintillation plates (Packard, Meriden, Conn.). […] The total flow through of 125 μl is mixed with 175 μl of Microscint-40 scintillation cocktail (Packard) and the scintillation plate is sealed with TopSeal P-foil (Packard). Scintillation plates are counted in a szintillation counter.
For the measurement of inducible NO-synthase-inhibiting potencies of compounds increasing concentrations of inhibitors were included into the incubation mixture. IC50-values were calculated from the percent inhibition at given concentrations by nonlinear least square fitting.

Compound | IC50 [1] [nM] | melting point [°C] | Inhibition of iNOS activity [measured as −logIC50 (mol/l)] [1]
COc1ccnc(CCc2nc3cc(I)cnc3[nH]2)c1 [compound 7, 2-[2-(4-Methoxypyridin-2-yl)ethyl]-6-iodo-3H-imidazo[4,5-b]pyridine] | 32.4 | – | –
COc1ccnc(CCc2nc3cc(C(F)(F)F)cnc3[nH]2)c1 [compound 9, 2-[2-(4-Methoxypyridin-2-yl)ethyl]-6-trifluoromethyl-3H-imidazo[4,5-b]pyridine] | 89.1 | – | –
COc1ccnc(CCc2nc3cc(-c4ccccc4)cnc3[nH]2)c1 [compound 10, 2-[2-(4-Methoxypyridin-2-yl)ethyl]-6-phenyl-3H-imidazo[4,5-b]pyridine] | 38.9 | – | –
COc1ccnc(CCc2nc3cc(C)cnc3[nH]2)c1 [compound 11, 2-[2-(4-Methoxypyridin-2-yl)ethyl]-6-methyl-3H-imidazo[4,5-b]pyridine] | 69.2 | – | –
COc1ccnc(CCc2nc3cc(CCc4ccccc4)cnc3[nH]2)c1 [compound 14, 2-[2-(4-Methoxypyridin-2-yl)ethyl]-6-(2-phenylethyl)-3H-imidazo[4,5-b]pyridine] | 45.7 | – | –
COc1ccnc(CCc2nc3cc(-c4ccc(Cl)c(Cl)c4)cnc3[nH]2)c1 [compound 15, 2-[2-(4-Methoxypyridin-2-yl)ethyl]-6-(3,4-dichlorphenyl)-3H-imidazo[4,5-b]pyridine] | – | – | 7.33
COc1ccnc(CCc2nc3cc(-c4ccc(Br)cc4)cnc3[nH]2)c1 [compound 16, 2-[2-(4-Methoxypyridin-2-yl)ethyl]-6-(4-bromphenyl)-3H-imidazo[4,5-b]pyridine] | – | – | 7.36
COc1ccnc(CCc2nc3cc(-c4ccc(C(F)(F)F)cc4)cnc3[nH]2)c1 [compound 30, 2-[2-(4-Methoxypyridin-2-yl)ethyl]-6-(4-trifluormethylphenyl)-3H-imidazo[4,5-b]pyridine] | – | – | 7.55
COc1ccnc(CCc2nc3cc(-c4ccc(OCc5ccccc5)c(F)c4)cnc3[nH]2)c1 [compound 33, 2-[2-(4-Methoxypyridin-2-yl)ethyl]-(4-benzyloxy-3-fluorophenyl)-3H-imidazo[4,5-b]pyridine] | – | – | 7.29

The next lines start with results.

IC50 [1] [nM] | melting point [°C] | Compound | Inhibition of iNOS activity [measured as −logIC50 (mol/l)] [1]
34.7 | – | COc1ccnc(CCc2nc3cc(-c4ccc(C)cc4)cnc3[nH]2)c1 [compound 25, 2-[2-(4-Methoxypyridin-2-yl)ethyl]-6-p-tolyl-3H-imidazo[4,5-b]pyridine] | –
89.1 | – | COc1ccnc(CCc2nc3cc(-c4cccnc4)cnc3[nH]2)c1 [compound 26, 2-[2-(4-Methoxypyridin-2-yl)ethyl]-6-(pyridin-3-yl)-3H-imidazo-[4,5-b]pyridine] | –
61.7 | 117 to 119 | COc1ccnc(CCc2nc3cc(-c4ccc(N)cc4)cnc3[nH]2)c1 [compound 27, 2-[2-(4-Methoxypyridin-2-yl)ethyl]-6-(4-aminophenyl)-3H-imidazo-[4,5-b]pyridine] | –
44.7 | 206 to 208 | COc1ccnc(CCc2nc3cc(-c4ccc(O)cc4)cnc3[nH]2)c1 [compound 28, 2-[2-(4-Methoxypyridin-2-yl)ethyl]-6-(4-hydroxyphenyl)-3H-imidazo-[4,5-b]pyridine] | –
38 | 176 to 178 | COc1ccnc(CCc2nc3cc(-c4ccc(N(C)C)cc4)cnc3[nH]2)c1 [compound 29, 2-[2-(4-Methoxypyridin-2-yl)ethyl]-6-(4-N,N-dimethylaminophenyl)-3H-imidazo[4,5-b]pyridine] | –
75.9 | 185 to 186 | COc1ccnc(CCc2nc3cc(-c4ccc(OC)c(OC)c4)cnc3[nH]2)c1 [compound 31, 2-[2-(4-Methoxypyridin-2-yl)ethyl]-6-(3,4-dimethoxyphenyl)-3H-imidazo[4,5-b]pyridine] | –
45.7 | 161 to 162 | COc1ccnc(CCc2nc3cc(-c4ccc(OCc5ccccc5)cc4)cnc3[nH]2)c1 [compound 32, 2-[2-(4-Methoxypyridin-2-yl)ethyl]-6-(4-benzyloxyphenyl)-3H-imidazo[4,5-b]pyridine] | –
33.9 | 241 to 242 | COc1ccnc(CCc2nc3cc(-c4ccc(C#N)cc4)cnc3[nH]2)c1 [compound 34, 2-[2-(4-Methoxypyridin-2-yl)ethyl]-6-(4-cyanophenyl)-3H-imidazo[4,5-b]pyridine] | –
67.6 | 220 to 221 | COc1ccnc(CCc2nc3cc(-c4ccc(NC(C)=O)cc4)cnc3[nH]2)c1 [compound 36, N-(4-{2-[2-(4-Methoxypyridin-2-yl)ethyl]-3H-imidazo[4,5-b]pyridin-6-yl}phenyl)-acetamide] | –
63.1 | 251 to 253 | COc1ccnc(CCc2nc3cc(-c4ccc(NS(=O)(=O)c5ccccc5)cc4)cnc3[nH]2)c1 [compound 37, N-(4-{2-[2-(4-Methoxypyridin-2-yl)ethyl]-3H-imidazo[4,5-b]pyridin-6-yl}phenyl)-benzenesulfonamide] | –
